Results reported in ChEMBL document CHEMBL1128318, “Synthesis of novel 2,4-diaminopyrrolo-[2,3-d]pyrimidines with antioxidant, neuroprotective, and antiasthma activity” (J Med Chem, 1995).

Columns and labels:
[1] = Oral bioavailability in rat (Sprague-Dawley) (male); assay type: ADME, organism-based; conditions: in vivo
[2] = The compound was tested for systemic clearance pharmacokinetic parameter in the male Sprague-Dawley rat.; assay type: ADME, organism-based; conditions: in vivo
[3] = The compound was tested for steady state volume of distribution pharmacokinetic parameter in the male Sprague-Dawley rat.; assay type: ADME, organism-based; conditions: in vivo
[4] = The compound was tested for terminal half-life pharmacokinetic parameter in the male Sprague-Dawley rat.; assay type: ADME, organism-based; conditions: in vivo
[5] = The compound was tested for Cmax value pharmacokinetic parameter in the male Sprague-Dawley rat.; assay type: ADME, organism-based; conditions: in vivo
[6] = The compound was tested for cytoprotective effect against the human astroglial cells.; assay type: functional, cell-based
Mus musculus [7] = species: Mus musculus; assay: The compound was tested for spinal neuroprotection in mouse.; assay type: functional, organism-based
Mus musculus [8] = species: Mus musculus; assay: The compound was evaluated for increase in neurological status at 1 hr post head injury using a simple grip test in mouse.; assay type: functional
Rattus norvegicus [9] = species: Rattus norvegicus; assay: The compound was tested for inhibition of [Fe2+]-induced MDA formation in rat brain homogenate.; assay type: functional
[10] = The compound was tested for tmax value pharmacokinetic parameter in the male Sprague-Dawley rat.; assay type: ADME, organism-based; conditions: in vivo
Mus musculus [11] = assay: The compound was tested for inhibition of lung eosinophilia in mouse at 10 mg/kg/day, po; assay type: functional
Mus musculus [12] = assay: The compound was tested for inhibition of lung eosinophilia in mouse at 3 mg/kg/day, po; assay type: functional
Mus musculus [13] = assay: The compound was tested for inhibition of lung eosinophilia in mouse at 30 mg/kg/day, po; assay type: functional
Rattus norvegicus [14] = assay: The compound was tested for inhibition of lung eosinophilia in rat at 30mg/kg/day, po; assay type: functional
Rattus norvegicus [15] = assay: The compound was tested for inhibition of lung eosinophilia in rat at 3 mg/kg/day, po; assay type: functional
Rattus norvegicus [16] = assay: The compound was tested for inhibition of lung eosinophilia in rat at 10 mg/kg/day, po; assay type: functional
Rattus norvegicus [17] = assay: The compound was tested for inhibition of lung eosinophilia in rat at 30 mg/kg/day, po; assay type: functional
Rattus norvegicus [18] = assay: The compound was tested for inhibition of lung eosinophilia in rat at 3mg/kg/day, po; assay type: functional

| bioavailability [1] [%] | clearance [2] [mL/min/kg] | Vd [3] [L/kg] | half-life [4] [h] | Cmax [5] [ng/mL] | EC50 [6] [nM] | IC50 (Mus musculus [7]) [nM] | IC50 (Rattus norvegicus [9]) [nM] | Tmax [10] [h] | SMILES | Score (Mus musculus [8]) [%] | inhibition in vivo at 10 mg/kg/day (Mus musculus [11]) [%] | inhibition in vivo at 3 mg/kg/day (Mus musculus [12]) [%] | inhibition in vivo at 30 mg/kg/day (Mus musculus [13]) [%] | inhibition in vivo at 30 mg/kg/day (Rattus norvegicus [14]) [%] | inhibition in vivo at 3 mg/kg/day (Rattus norvegicus [15]) [%] | inhibition in vivo at 10 mg/kg/day (Rattus norvegicus [16]) [%] | inhibition in vivo at 30 mg/kg/day (Rattus norvegicus [17]) [%] | inhibition in vivo at 3 mg/kg/day (Rattus norvegicus [18]) [%] |
| --- | --- | --- | --- | --- | --- | --- | --- | --- | --- | --- | --- | --- | --- | --- | --- | --- | --- | --- |
| 31.4 | 38.8 | 66.2 | 6.1 | 720 | 200 | 130 | 1000 | 8 | Cn1c(-c2ccc(O)cc2)cc2c(N3CCCC3)nc(N3CCCC3)nc21 | 138 |  |  |  |  |  |  |  |  |
| 70.2 | 1.67 | 1.09 | 8.9 | 40300 | 200 | 340 | 2000 | 2 | Cn1c2c(c3c(N4CCCC4)nc(N4CCCC4)nc31)CCCC2 | 276 | 31 | 0 | 41 | 47 | 72 |  |  |  |
| 78.3 | 0.967 | 0.94 | 11.2 | 19400 | 300 | 1100 |  | 2 | C1CCc2c(c3c(N4CCCC4)nc(N4CCCC4)nc3n2CCN2CCOCC2)C1 | 163 | 56 | 37 | 72 | 62 | 13 | 30 |  |  |
| 84.6 | 8.83 | 39.7 | 10.9 | 5710 | 200 | 7000 | 1000 | 4 | Cc1cc2c(N3CCCC3)nc(N3CCCC3)nc2n1C | 100 | 0 | 0 | 0 |  |  | 27 | 28 | 0 |
| 55.9 | 23.7 | 44 | 22.1 | 1420 | 900 | 1300 | 5000 | 4 | Cn1c(-c2ccccc2)cc2c(N3CCCC3)nc(N3CCCC3)nc21 | 104 |  |  |  |  |  |  |  |  |
| 59.8 | 20.7 | 42.8 | 24.3 | 600 | 400 | 3400 | 1000 | 4 | COc1ccc(-c2cc3c(N4CCCC4)nc(N4CCCC4)nc3n2C)cc1 | 73 |  |  |  |  |  |  |  |  |
| 69.9 | 2 | 1.92 | 15.7 | 14700 | 3000 | 10600 |  | 2 | c1ccc2c(c1)c1c(N3CCCC3)nc(N3CCCC3)nc1n2CCN1CCOCC1 |  | 62 | 53 | 71 | 85 |  | 87 |  |  |
